Some test systems named below: 786-0 renal; A549 NSCLC; DU-145 prostate; HCT-116 colon; HL-60(TB) leukemia; HOP-62 NSCLC; MOLT-4 leukemia; NCI/ADR-RES ovarian; UACC-62 melanoma; LOX IMVI melanoma.
Assay in all cases: NCI tumour cell line growth inhibition, 48 h

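Interpolation was linear, between the two tested concentrations surrounding the appropriate level; five concentrations were tested over 48 hours in 96-well plates. The concentration for 50% growth inhibition is given as GI50. The concentration for full growth arrest is given as TGI.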

For the compound `O=C(Nc1ccc(Cl)c(Cl)c1)c1ccc(NC2=C(Cl)C(=O)N(Cc3ccccc3)C2=O)cc1`, the GI50 in the assay on 786-0 renal was 7.74 µM; with A549 NSCLC, 11.9 µM; in the assay on DU-145 prostate, 4.32 µM; in the assay with HCT-116 colon it was 1.94 µM; in the assay on HL-60(TB) leukemia, 2.82 µM; with HOP-62 NSCLC it was 17.4 µM. In addition, the GI50 with MOLT-4 leukemia is 2.18 µM; in the assay with NCI/ADR-RES ovarian, 5.04 µM; with UACC-62 melanoma, 4.93 µM. The TGI with 786-0 renal was 20.1 µM; in the assay on A549 NSCLC it was 27.3 µM; in the assay on DU-145 prostate it was 16.6 µM; in the assay with HCT-116 colon, 4.25 µM; with HL-60(TB) leukemia, 7.68 µM; with HOP-62 NSCLC it was 31.3 µM. In addition, the TGI stood at 5.02 µM in the assay with MOLT-4 leukemia, 17 µM in the assay with NCI/ADR-RES ovarian and 17.7 µM in the assay on UACC-62 melanoma.

On to `O=C(Nc1ccc(Br)c2ccccc12)c1ccc2ccccc2c1O`, for which the TGI in the assay on 786-0 renal amounted to 15.9 µM; in the assay on A549 NSCLC, 11 µM; in the assay with DU-145 prostate, 85.4 µM; with HCT-116 colon, 11.2 µM; in the assay with HL-60(TB) leukemia, 88.8 µM; in the assay on HOP-62 NSCLC, 14.8 µM. In addition, the TGI is more than 100 µM with MOLT-4 leukemia, 12.9 µM with NCI/ADR-RES ovarian and 15 µM in the assay with UACC-62 melanoma.

As for `CC(=O)C(CN1C(=O)c2ccccc2C1=O)C(C)=O`, the TGI with 786-0 renal, with A549 NSCLC, in the assay on DU-145 prostate, with HCT-116 colon, with HOP-62 NSCLC and with UACC-62 melanoma was more than 100 µM in each case.

On to `CN(C(=O)C(C)(C)C)c1ccccc1I(=O)=O`, for which the GI50 in the assay on 786-0 renal is more than 100 µM; in the assay on A549 NSCLC, more than 100 µM; in the assay on DU-145 prostate, more than 100 µM; with HL-60(TB) leukemia it was 3.81 µM; in the assay on LOX IMVI melanoma, more than 100 µM; in the assay with MOLT-4 leukemia it was 3.45 µM. For the same compound, the GI50 with NCI/ADR-RES ovarian and with UACC-62 melanoma was more than 100 µM each time. The TGI in the assay on 786-0 renal, in the assay with A549 NSCLC, in the assay on DU-145 prostate, in the assay on HL-60(TB) leukemia, in the assay with LOX IMVI melanoma and with MOLT-4 leukemia was more than 100 µM each time. Moreover, the TGI in the assay with NCI/ADR-RES ovarian and in the assay with UACC-62 melanoma was more than 100 µM each time.

With `Nc1nc2cc(Cl)ccc2n1N`, the TGI in the assay with 786-0 renal, in the assay with A549 NSCLC, with DU-145 prostate, in the assay with HCT-116 colon, in the assay on HL-60(TB) leukemia and in the assay on HOP-62 NSCLC was more than 100 µM throughout. The TGI with LOX IMVI melanoma, in the assay with MOLT-4 leukemia and with UACC-62 melanoma was more than 100 µM throughout.

For `Cc1ccc(NC(=O)COc2ccc(Cl)cc2)cc1Cl`, the TGI in the assay on 786-0 renal, in the assay with A549 NSCLC, in the assay with DU-145 prostate, in the assay on HCT-116 colon, in the assay on HOP-62 NSCLC and with LOX IMVI melanoma was more than 100 µM throughout. Also, the TGI in the assay with MOLT-4 leukemia, in the assay with NCI/ADR-RES ovarian and in the assay with UACC-62 melanoma was more than 100 µM throughout.

Turning to `O=[N+]([O-])c1ccc2c(c1)C(N1CCN(CCO)CC1)Cc1ccc(F)cc1S2` (configuration not stated), the TGI with 786-0 renal came to 26.4 µM; in the assay with A549 NSCLC, 26.3 µM; in the assay with DU-145 prostate, 29 µM; in the assay on HCT-116 colon, 19.7 µM; in the assay on HL-60(TB) leukemia, 23.1 µM; in the assay with HOP-62 NSCLC, 43.8 µM. Besides, the figures for the TGI in the assay on MOLT-4 leukemia, in the assay with NCI/ADR-RES ovarian and with UACC-62 melanoma were 9.21 µM, 25.4 µM and 12.3 µM, respectively.

Take `C=CCc1c(O)c(C(=O)/C=C/c2ccc(Cl)cc2)c(OC)c2ccoc12`: the GI50 is 4.83 µM in the assay on 786-0 renal; 4.7 µM in the assay with A549 NSCLC; 3.85 µM with DU-145 prostate; 2.74 µM with HCT-116 colon; 2.31 µM in the assay with HOP-62 NSCLC; 1.63 µM in the assay with LOX IMVI melanoma. Also, the GI50 is 2.61 µM in the assay with MOLT-4 leukemia, 2.23 µM in the assay with NCI/ADR-RES ovarian and 2.88 µM in the assay on UACC-62 melanoma. The TGI with 786-0 renal worked out at 18.6 µM; in the assay on A549 NSCLC, 18.2 µM; in the assay on DU-145 prostate it was 18.1 µM; in the assay on HCT-116 colon, 9 µM; in the assay with HOP-62 NSCLC, 5.76 µM; in the assay with LOX IMVI melanoma it was 3.08 µM. Also, the TGI with MOLT-4 leukemia was more than 100 µM; in the assay with NCI/ADR-RES ovarian, 5.86 µM; in the assay with UACC-62 melanoma, 10.1 µM.

As to `C/C(=N\N=C(N)N)C(CN1CCOCC1)C(c1ccccc1)c1c(O)c2ccccc2oc1=O` (configuration not stated), the TGI in the assay on 786-0 renal, in the assay with A549 NSCLC, in the assay on HCT-116 colon, in the assay with HL-60(TB) leukemia, in the assay on HOP-62 NSCLC and in the assay on LOX IMVI melanoma was more than 100 µM in each case. Moreover, the TGI in the assay with MOLT-4 leukemia and in the assay with UACC-62 melanoma was more than 100 µM throughout.

Turning to `O=C(Nc1ccc(Br)cc1)C(=O)C(C(=O)c1ccc(Cl)c(Cl)c1)C1OC(=O)c2ccccc21` (configuration not stated), the TGI in the assay with 786-0 renal was 30.9 µM; in the assay on A549 NSCLC, 46 µM; in the assay on HCT-116 colon it was 25.9 µM; with HL-60(TB) leukemia, more than 100 µM; with HOP-62 NSCLC it was 32.5 µM; in the assay with LOX IMVI melanoma, 47 µM. Further, the results for the TGI in the assay on MOLT-4 leukemia and in the assay with UACC-62 melanoma were more than 100 µM and 26.4 µM, respectively.

On to `CCOC(=O)N1CCC(N=C2CSc3nnc(-c4cc(C(F)(F)F)cc(C(F)(F)F)c4)n3N2)CC1`, for which the GI50 in the assay on 786-0 renal is 2.18 µM; with DU-145 prostate it was 2.39 µM; in the assay on HCT-116 colon, 1.9 µM; in the assay on HOP-62 NSCLC it was 2.17 µM; in the assay with LOX IMVI melanoma it was 1.77 µM; with MOLT-4 leukemia, 2.57 µM. Moreover, the GI50 in the assay on NCI/ADR-RES ovarian is 2.58 µM; with UACC-62 melanoma, 1.64 µM. The TGI with 786-0 renal was determined as 5.21 µM; with DU-145 prostate, 6.17 µM; in the assay on HCT-116 colon, 3.7 µM; in the assay with HOP-62 NSCLC it was 4.03 µM; with LOX IMVI melanoma, 3.45 µM; in the assay with MOLT-4 leukemia, 5.31 µM. Besides, the TGI in the assay on NCI/ADR-RES ovarian stood at 8.08 µM; in the assay with UACC-62 melanoma, 3.36 µM.

In the case of `C=CC1=C(C)C(/C=c2\[nH]/c(=C/c3[nH]c(CC4NC(=O)C(C)/C4=C\C)c(C)c3CCC(=O)O)c(CC(=O)O)c2C)=NC1=O` (configuration not stated), the TGI in the assay with 786-0 renal, with A549 NSCLC, in the assay with HCT-116 colon, in the assay with HL-60(TB) leukemia, in the assay with HOP-62 NSCLC and with LOX IMVI melanoma was more than 100 µM in each case. Besides, the TGI in the assay on MOLT-4 leukemia and with UACC-62 melanoma was more than 100 µM throughout.

Consider `NS(=O)(=O)c1ccc(-n2nc3c(c2-c2cccs2)Cc2ccccc2-3)cc1`, for which the GI50 in the assay on 786-0 renal was 17.1 µM; in the assay with A549 NSCLC, 20.7 µM; with DU-145 prostate, 10.6 µM; in the assay on HCT-116 colon, 7.67 µM; with HOP-62 NSCLC, 16.5 µM; in the assay with LOX IMVI melanoma, 6.58 µM. Further, the GI50 was 1.43 µM in the assay on MOLT-4 leukemia, 12.4 µM in the assay with NCI/ADR-RES ovarian and 11.5 µM in the assay on UACC-62 melanoma. For the same compound, the TGI was found to be 31.9 µM in the assay with 786-0 renal; 51.1 µM in the assay with A549 NSCLC; 24 µM in the assay on DU-145 prostate; 22.7 µM in the assay on HCT-116 colon; 32.2 µM in the assay with HOP-62 NSCLC; 19.9 µM in the assay on LOX IMVI melanoma. Besides, the TGI stood at 3.97 µM with MOLT-4 leukemia, 26.1 µM in the assay on NCI/ADR-RES ovarian and 23.7 µM in the assay with UACC-62 melanoma.

`O=C(CC12C3C4C1C1C2C3C41CC(=O)NO)NO` (configuration not stated): the TGI with 786-0 renal was more than 100 µM; in the assay on A549 NSCLC it was more than 100 µM; in the assay on HCT-116 colon it was more than 100 µM; with HL-60(TB) leukemia, 86.2 µM; with HOP-62 NSCLC it was more than 100 µM; in the assay with LOX IMVI melanoma, 74.5 µM. Moreover, the TGI in the assay with MOLT-4 leukemia and with UACC-62 melanoma was more than 100 µM each time.

Turning to `CSc1ccc(N2C(=O)C3c4[nH]c5ccccc5c4C4CCC(C(C)(C)C)CC4C3C2=O)cc1` (configuration not stated), the TGI with 786-0 renal was 29.1 µM; in the assay on A549 NSCLC, 33.5 µM; in the assay with HCT-116 colon, 18 µM; in the assay with HL-60(TB) leukemia, 31.1 µM; in the assay on HOP-62 NSCLC, 28.6 µM; in the assay with LOX IMVI melanoma, 31.8 µM. In addition, the TGI is 31.7 µM in the assay with MOLT-4 leukemia and 28.9 µM in the assay on UACC-62 melanoma.

For the compound `Cc1cc(N(CCC#N)S(=O)(=O)c2ccccc2)ccc1C=Nc1ccc(C(=O)O)cc1`, the TGI in the assay on 786-0 renal was 16.1 µM; in the assay on A549 NSCLC, 52.5 µM; with DU-145 prostate, more than 100 µM; in the assay with HCT-116 colon, 14.7 µM; in the assay with HL-60(TB) leukemia it was more than 21.3 µM; in the assay on HOP-62 NSCLC it was 46 µM. In addition, the TGI came out at 25.5 µM in the assay with LOX IMVI melanoma, 13.8 µM in the assay on MOLT-4 leukemia and 37.1 µM in the assay with UACC-62 melanoma.

On to `Cc1ccc(/C=C2\CCCCC2=O)cc1`, for which the TGI in the assay on 786-0 renal was more than 100 µM; with A549 NSCLC, more than 100 µM; with HCT-116 colon, more than 100 µM; in the assay on HL-60(TB) leukemia, 48.3 µM; in the assay with HOP-62 NSCLC, more than 100 µM; in the assay with LOX IMVI melanoma, more than 100 µM. Besides, the TGI was 45.4 µM in the assay on MOLT-4 leukemia and more than 100 µM in the assay with UACC-62 melanoma.

In the case of `O=C(O)c1cc(NCc2cc(O)ccc2O)ccc1O`, the TGI with 786-0 renal, with A549 NSCLC, in the assay with DU-145 prostate, in the assay on HCT-116 colon, in the assay on HOP-62 NSCLC and with NCI/ADR-RES ovarian was more than 100 µM in each case. Also, in the assay with UACC-62 melanoma, the TGI is more than 100 µM.

Source of the values: PubChem BioAssay (NCI).
